Results as given in patent publication US8957192B2, “Human cytotoxic T-lymphocyte epitope and its agonist epitope from the non-variable number of tandem repeat sequence of MUC-1” (The United States of America, as represented by the …, priority 2003, dated 2015).
Several values for one entry are separate records, joined by “and”; a condition that tells them apart may be missing. Equal entries are not always repeated.

Legend:
[1] = target: HLA-A2 molecule (Homo sapiens, UniProt P04439, I166T/I218V/L300P/L318F/N151K/N90K/P208A/P217A/Q86G/Q94H/R138H/R169H/T345S); assay: T2 cell binding assay: peptide binding to HLA-A2 by flow cytometry
Procedure: In this assay, increased stability (accumulation) of HLA-A2 molecules on the surface of T2 cells as a consequence of peptide binding is measured by increased binding of antibody directed against HLA-A2 molecule. Briefly, 1×10^6 cells in serum-free Iscove's modified Dulbecco's complete medium were incubated with peptides at a concentration of 50 μg/ml in 24-well culture plates at 37° C. in 5% CO2. Flow cytometry for peptide binding was performed using T2 cells and single-color analysis. After cells were washed three times in DPBS, as described above, they were incubated for 1 h with a 1:100 dilution of HLA-A2-specific MAb (One Lambda, Inc.) per 10^6 cells. UPC-10 (Cappel/Organon Teknika) was used as isotype control. The cells were then washed three times and incubated with 1:100 dilution of FITC-labeled anti-mouse IgG (BD Biosciences). Analysis was conducted with the FACScan, as described above. Cells were maintained on ice during all cell preparation and staining.
The primary amino acid sequence of human MUC-1 was analyzed for consensus motifs for novel HLA-A2 binding peptides. […] The CEA CAP1-6D peptide and a NCA peptide were used as a positive and negative control, respectively.

[2] = target: peptide-HLA-A2 complexes (Homo sapiens, UniProt P04439, D140Y/D185E/D98H/E176V/E277Q/G131W/G231S/I119V/I121R/I166T/I218V/L300P/L318F/N151K/N90K/P208A/P217A/Q86G/Q94H/R138H/R169H/T345S); assay: Stability of peptide-HLA-A2 complex on T2 cells (brefeldin-A); format: binding; settings: 50 μg/ml overnight, 8-hour observation
Procedure: FIG. 2 is a graph showing the comparison of the stability of the complex of the P-92, P-93L or P-93I peptide with HLA-A2. T2 cells were incubated overnight with P-92 (open square), P-93L (closed square) or P-93I (closed triangle) peptide at a concentration of 50 μg/ml and then washed free of unbound peptide and incubated with brefeldin-A to block delivery of new class I molecules to the cell surface. At the indicated times, cells were stained for the presence of surface peptide-HLA-A2 complexes. Results are expressed in relative percentage of binding compared with 100% at time 0.
The stability of the peptide-MHC complex for peptides P-92 (native), P-93L and P-93I, was examined. Peptides were incubated with T2 cells overnight, the unbound peptides were washed off, and then incubated with brefeldin-A to block delivery of new class I molecules to the cell surface; at various time points cells were analyzed for the presence of peptide-HLA-A2 complexes.

[3] = target: HLA-A2 molecule (Homo sapiens, UniProt P04439, D140Y/D185E/D98H/E176V/E277Q/G131W/G231S/I119V/I121R/I166T/I218V/L300P/L318F/N151K/N90K/P208A/P217A/Q86G/Q94H/R138H/R169H/T345S); assay: T2 cell binding assay: peptide binding to HLA-A2 by flow cytometry; settings: peptides 0-50 μg/ml; MFI
[4] = test system: T-1191-MUC-1 cells; assay: IFN-γ production (ELISA) by T-1191-MUC-1 cells stimulated with peptide-pulsed autologous B cells; format: cell-based, human; settings: for Production of IFN-γ, with peptide: T-1191-MUC-1 at IVS-3, autologous EBV-B cells pulsed 25 μg/ml, effector-to-APC 1:3, 24 h
Procedure: (§1) Supernatants of T cells exposed for 24 h to peptide-pulsed autologous EBV-transformed B cells, in IL-2-free medium at various peptide concentrations, were screened for secretion of IFN-γ using an ELISA kit (R & D Systems, Minneapolis, Minn.). The results were expressed in pg/ml. A CBA system (BD PharMingen, San Diego, Calif.) was also used to determine the secretion of multiple cytokines by specific T cells. The CBA system uses the fluorescence detection by flow cytometry to measure soluble analyses in a particles-based immunoassay. The BD human Th1/Th2 cytokine CBA Kit was used to measure IL-2, IL-4, IL-5, IL-10, TNF-α protein levels in a single sample. The cytokine capture beads were mixed with PE-conjugated detection antibodies and then incubated with recombinant cytokine standards or test samples to form sandwich complexes. The sample results were generated in graphic and tabular format, using BD PharMingen CBA analysis software. The results were expressed in pg/ml.
The specificity of the MUC-1-specific T cells generated (designated T-1191-MUC-1) was analyzed after IVS cycle 3 (see Materials and Methods) for their ability to release IFN-γ after stimulation with autologous B cells pulsed with each of the MUC-1 peptides listed in Table 1.

[5] = test system: T-cell lines T-rV, T-rF, T-rF(CEA), T-rF(MUC); format: cell-based, human; settings: 24 h
[6] = test system: T-cell lines T-55, T-49, T-41; assay: IFN-γ production by T-cell lines from cancer patients established with rF-CEA/MUC/TRICOM-infected DCs; format: cell-based, human; settings: autologous DCs as APC; peptides 25 μg/ml; effector-to-APC 10:1; 24 h
[7] = test system: MUC-1-specific T-cell lines T-23-P-92, T-23-P-93L, T-18-P-92, T-18-P-93L; assay: IFN-γ production by T-cell lines from two pancreatic cancer subjects stimulated with peptide-pulsed DCs; format: cell-based, human; settings: IVS-4; allogeneic DCs pulsed 25 μg/ml; effector-to-APC 10:1; 24 h
[8] = test system: CEA-specific T cells (V8T); format: cell-based, human; settings: 24 h
[9] = test system: MUC-1-specific T cells (T-1191-P93L); format: cell-based, human; settings: 24 h
[10] = test system: T-1191-MUC-1 cells; assay: CBA assay for production of cytokines by MUC-1 peptide-stimulated T cells; format: cell-based, human; settings: peptide 25 μg/ml; effector-to-APC 1:3; 24 h
Procedure: as §1
The ability of the P-93L and P-93I agonist peptides at various peptide concentrations, to activate the T-1191-MUC-1 cells, was compared. […] The P-93L agonist peptide was thus chosen for further study. The cytokine profile of T-1191-MUC-1 cells stimulated with APCs pulsed with either the P-92 or the P-93L peptide was then analyzed. A CBA assay was used for the analysis. […] No TNF-α could be detected in the supernatants at the 24-h time point.

[11] = Table 1, T2 cells, peptide 50 μg/ml

AIWGQDVTSL [I-93/L-101]
T2 binding ([1]; Table 4, P-92 analogues): 280 relative fluorescence values

AIWGQDVTSV [Peptide P-93I]
T2 binding ([1]; Table 4, P-92 analogues): 823 relative fluorescence values
stability of the peptide-HLA-A2 complex (FIG. 2) [2]: more stable than P-92-HLA-A2 complexes
binding to HLA-A2 at various peptide concentrations (FIG. 1) [3]: higher levels than P-92 at all peptide concentrations

ALAIVYLIAL [Peptide P-1172]
Production of IFN-γ, with peptide [4]: <52.3 pg/mL
T2 binding [1, 11]: 372 relative fluorescence

ALLVLVCVLV [Peptide P-1162]
Production of IFN-γ, with peptide [4]: <52.3 pg/mL
T2 binding [1, 11]: 431 relative fluorescence

ALWGQDVTSL [L-93/L-101]
T2 binding ([1]; Table 4, P-92 analogues): 736 relative fluorescence values

ALWGQDVTSV [Peptide P-93L, MUC-1 agonist peptide]
IFN-γ production by T-1191-MUC-1 cells at various peptide concentrations (FIG. 3) ([4]; peptides 0-6.25 μg/ml): greatest level of IFN-γ production
Production of IFN-γ by T-rF [5]: 446.0 pg/mL
Production of IFN-γ by T-rF(CEA) [5]: <15.6 pg/mL
Production of IFN-γ by T-rF(MUC) [5]: 626.8 pg/mL
Production of IFN-γ by T-rV [5]: 514.0 pg/mL
T2 binding ([1]; Table 4, P-92 analogues): 821 relative fluorescence values
stability of the peptide-HLA-A2 complex (FIG. 2) [2]: more stable than P-92-HLA-A2 complexes
IFN-γ secretion by T-41 [6]: 745.0 pg/mL
IFN-γ secretion by T-49 [6]: 819.0 pg/mL
IFN-γ secretion by T-55 [6]: 985.8 pg/mL
IFN-γ produced by T-18-P-92 [7]: 366.6 pg
IFN-γ produced by T-18-P-93L [7]: 524.1 pg
IFN-γ produced by T-23-P-92 [7]: 644.5 pg
IFN-γ produced by T-23-P-93L [7]: 973.0 pg
binding to HLA-A2 at various peptide concentrations (FIG. 1) [3]: higher levels than P-92 at all peptide concentrations
IFN-γ, CEA-specific CTL [8]: <15 pg/mL
IFN-γ, MUC-1-specific CTL [9]: 458 pg/mL and 550 pg/mL
IFN-γ [10]: 650 pg/ml/10^6 cell/ml
IL-2 [10]: 366.9 pg/ml/10^6 cell/ml
IL-4 [10]: <20 pg/ml/10^6 cell/ml
IL-5 [10]: 140.9 pg/ml/10^6 cell/ml
IL-10 [10]: <20 pg/ml/10^6 cell/ml
TNF-α [10]: <20 pg/ml/10^6 cell/ml

AMWGQDVTSL [M-93/L-101]
T2 binding ([1]; Table 4, P-92 analogues): 325 relative fluorescence values

AMWGQDVTSV [Peptide M-93]
T2 binding ([1]; Table 4, P-92 analogues): 723 relative fluorescence values

ATWGQDVTSV [Peptide P-92]
Production of IFN-γ, with peptide [4]: 380.8 pg/mL
T2 binding [1, 11]: 740 relative fluorescence
T2 binding ([1]; Table 4, P-92 analogues): 510 relative fluorescence values
IFN-γ produced by T-18-P-92 [7]: 168.0 pg
IFN-γ produced by T-18-P-93L [7]: 378.2 pg
IFN-γ produced by T-23-P-92 [7]: 299.8 pg
IFN-γ produced by T-23-P-93L [7]: 400.5 pg
IFN-γ [10]: 266 pg/ml/10^6 cell/ml
IL-2 [10]: 58.8 pg/ml/10^6 cell/ml
IL-4 [10]: <20 pg/ml/10^6 cell/ml
IL-5 [10]: <20 pg/ml/10^6 cell/ml
IL-10 [10]: <20 pg/ml/10^6 cell/ml
TNF-α [10]: <20 pg/ml/10^6 cell/ml

GTQSPFFLLL [Peptide P-4]
Production of IFN-γ, with peptide [4]: 260.0 pg/mL
T2 binding [1, 11]: 467 relative fluorescence
